Experiments:
Assay type in all cases: toxicity, cell-based
[1] = tested on: HEK-293T; assay: Incucyte cell viability with HEK293T; settings: human, 10 µM, compound concentration 10 uM
[2] = tested on: Fibroblast; assay: Incucyte cell viability with human fibroblast; settings: 10 µM, compound concentration 10 uM
[3] = tested on: U2OS; assay: Incucyte cell viability with U2OS; settings: human, 10 µM, compound concentration 10 uM
[4] = 0 h, replicate number 1, timepoint 0 hours
[5] = 0 h, replicate number 2, timepoint 0 hours
[6] = 6 h, replicate number 1, timepoint 6 hours
[7] = 12 h, replicate number 1, timepoint 12 hours
[8] = 12 h, replicate number 2, timepoint 12 hours
[9] = 18 h, replicate number 1, timepoint 18 hours
[10] = 18 h, replicate number 2, timepoint 18 hours
[11] = 24 h, replicate number 2, timepoint 24 hours
[12] = 24 h, replicate number 1, timepoint 24 hours
[13] = 6 h, replicate number 2, timepoint 6 hours
Note: unitless GR value; below 1 slowed growth and below 0 cell loss.

| SMILES | Growth Rate [1, 4] | Growth Rate [1, 5] | Growth Rate [1, 6] | Growth Rate [1, 7] | Growth Rate [2, 5] | Growth Rate [2, 6] | Growth Rate [2, 7] | Growth Rate [3, 4] | Growth Rate [3, 6] | Growth Rate [3, 8] | Growth Rate [3, 9] | Growth Rate [3, 10] | Growth Rate [1, 12] | Growth Rate [2, 13] | Growth Rate [2, 8] | Growth Rate [2, 9] | Growth Rate [2, 10] | Growth Rate [2, 12] | Growth Rate [3, 5] | Growth Rate [2, 4] | other results |
| --- | --- | --- | --- | --- | --- | --- | --- | --- | --- | --- | --- | --- | --- | --- | --- | --- | --- | --- | --- | --- | --- |
| COC(=O)[C@H]1[C@H]2C[C@H]3c4[nH]c5ccccc5c4CCN3C[C@H]2CC[C@@H]1O.Cl [RAUWOLSCINE HYDROCHLORIDE] | 0.51 | 0.67 | 0.76 | 0.95 | -0.08 | 0.83 | 0.59 | -0.57 | 0.53 | 0.89 | 0.79 | 0.88 |  |  |  |  |  |  |  |  | Growth Rate [3, 7]: 0.61; Growth Rate [3, 11]: 0.98 |
| CC(C)Cc1ccc([C@@H](C)C(=O)NS(C)(=O)=O)cc1 [REPARIXIN] |  | 0.48 |  | 0.78 |  | 0.51 | 0.63 | -0.7 |  | 0.88 |  | 0.86 | 0.82 | -0.08 | 0.66 | 0.6 | 0.65 | 0.06 | -1 |  | Growth Rate [1, 9]: 0.7; Growth Rate [1, 10]: 0.83; Growth Rate [2, 11]: 0.95; Growth Rate [3, 13]: 0.83; Growth Rate [3, 11]: 0.93 |
| CC(C)c1cc(Oc2c(Cl)cc(-n3nc(C#N)c(=O)[nH]c3=O)cc2Cl)n[nH]c1=O [RESMETIROM] | 0.01 | 0.23 | 0.99 | 0.77 | 0.82 |  |  | 0.87 | 0.7 | 0.75 | 0.83 | 0.79 |  | 0.58 | 0.74 |  | 0.87 |  | 0.06 | -0.06 | Growth Rate [1, 10]: 0.96; Growth Rate [1, 11]: 0.86; Growth Rate [2, 11]: 0.85; Growth Rate [3, 13]: 0.54; Growth Rate [3, 12]: 0.99 |
| CN(CCN1CCC(OC(=O)Nc2ccccc2-c2ccccc2)CC1)C(=O)c1ccc(CN2CCC(C(N)=O)CC2)cc1 [REVEFENACIN] |  |  | 0.97 | 0.95 | 0.62 |  | 0.73 | 0.88 |  |  |  |  | 0.9 | 0.71 | 0.65 | 0.65 | 0.9 | 0.56 | 0.11 |  | Growth Rate [1, 8]: 0.59; Growth Rate [1, 9]: 0.98; Growth Rate [1, 10]: 0.74; Growth Rate [1, 11]: 0.78; Growth Rate [2, 11]: 0.97 |
| N[C@@H]1c2cccnc2[C@H](OC(=O)N2CCC(n3c(=O)[nH]c4ncccc43)CC2)CC[C@H]1c1cccc(F)c1F [RIMEGEPANT] |  | 0.87 | 0.99 |  |  | -0.21 | -0.05 | -0.42 |  |  |  | 0.96 | 0.89 | 0.05 | -0.02 | 0.2 | 0.18 | 0.1 |  | 0.86 | Growth Rate [1, 13]: 0.67; Growth Rate [2, 11]: -0.18; Growth Rate [3, 13]: 0.88; Growth Rate [3, 11]: 0.87 |
| Cc1c(C(=O)NN2CCCCC2)nn(-c2ccc(Cl)cc2Cl)c1-c1ccc(Cl)cc1 [RIMONABANT] | 0.19 | -0.01 |  |  | 0.97 | -0.42 | 0.04 | 0.12 |  |  |  | 0.98 |  | -0.46 | 0 | -0.03 | 0.53 | 0.03 | -1 |  | Growth Rate [2, 11]: 0.42; Growth Rate [3, 12]: 0.8 |
| C[C@@H](OC[C@@]1(c2ccccc2)CC[C@]2(CCC(=O)N2)CN1)c1cc(C(F)(F)F)cc(C(F)(F)F)c1 [ROLAPITANT] |  |  |  | 0.83 | 0.28 | -0.04 | 0.02 |  | -0.32 | 0.49 | 0.79 | 0.63 | 0.89 |  | 0.68 | 0.57 |  | 0.27 |  |  | Growth Rate [1, 13]: 0.73; Growth Rate [1, 8]: 0.57; Growth Rate [1, 9]: 0.88; Growth Rate [1, 10]: 0.81; Growth Rate [1, 11]: 1; Growth Rate [3, 13]: 0.54; Growth Rate [3, 12]: 0.84; Growth Rate [3, 11]: 0.64 |
| CCCN(CCC)CCc1cccc2c1CC(=O)N2.Cl [ROPINIROLE HYDROCHLORIDE] | 0.6 | 0.1 | 0.94 |  | -0.1 |  | 0.31 | 0.4 | 0.57 |  | 0.76 |  |  |  |  | 0.67 |  | 0.64 |  | 0.73 | Growth Rate [3, 7]: 0.77 |
| CCCN(CCc1cccs1)[C@H]1CCc2c(O)cccc2C1 [ROTIGOTINE] | 0.77 | -1 |  |  | -0.39 | 0.1 | 0.84 | 0.77 | 0.95 |  |  |  | 0.99 |  |  |  |  |  |  |  | Growth Rate [3, 7]: 0.96 |
| OCc1cc(C(O)CNCCCCCCOCCCCc2ccccc2)ccc1O (stereo unspecified) [SALMETEROL] |  |  | 0.2 | 0.7 | 0.63 |  |  |  | 0.56 | 0.98 | 0.81 |  | 0.7 |  | 0.59 |  | 0.72 |  |  | 0.1 | Growth Rate [1, 13]: 0.28; Growth Rate [1, 8]: 0.57; Growth Rate [1, 9]: 0.75; Growth Rate [1, 10]: 0.72; Growth Rate [1, 11]: 0.71; Growth Rate [3, 7]: 0.56; Growth Rate [3, 12]: 0.95 |
| CC[C@H](NC(=O)c1c(C)c(-c2ccccc2)nc2ccccc12)c1ccccc1 [SB-222200] |  |  | 0.76 | 0.77 |  | 0.45 | 0.45 |  |  | 0.93 |  | 0.84 | 0.88 | -0.34 | 0.48 | 0.64 | 0.91 | 0.67 | -1 |  | Growth Rate [1, 13]: 0.41; Growth Rate [1, 8]: 0.72; Growth Rate [1, 9]: 0.97; Growth Rate [2, 11]: 0.98; Growth Rate [3, 11]: 0.93 |
| CC(C)N(CCCCOCC(=O)NS(C)(=O)=O)c1cnc(-c2ccccc2)c(-c2ccccc2)n1 [SELEXIPAG] | 0.99 | 0.73 |  | 0.89 | 0.34 | 0.5 | 0.75 | 0.21 | 0.41 | 0.8 | 0.99 | 0.98 |  |  |  | 0.76 |  | 0.48 | -1 | 0.56 | Growth Rate [1, 13]: 0.76; Growth Rate [1, 8]: 0.73; Growth Rate [3, 12]: 1 |
| CSCC[C@H](NC(=O)[C@H](CC(C)C)NC(=O)CNC(=O)[C@H](Cc1ccccc1)N(C)C(=O)[C@H](Cc1ccccc1)NC(=O)[C@H](CC(=O)O)NC(=O)CCC(=O)O)C(N)=O [SENKTIDE] | 0.75 | -0.03 | 0.83 |  | 0.41 |  | 0.98 |  |  | 0.98 |  | 0.91 | 0.84 | 0.25 | 0.87 |  |  | 0.9 |  | 0.34 | Growth Rate [1, 8]: 0.93; Growth Rate [1, 9]: 0.92; Growth Rate [1, 11]: 0.88; Growth Rate [3, 7]: 0.94 |
| CC1=C(C)C(=O)C(C(CCCCCC(=O)O)c2ccccc2)=C(C)C1=O (stereo unspecified) [SERATRODAST] |  |  |  |  |  | 0.67 |  | -0.5 |  |  |  |  |  |  |  |  |  |  | -1 | 1 | Growth Rate [1, 13]: 0.54; Growth Rate [1, 8]: 0.63; Growth Rate [3, 11]: 0.99 |
| Cl.NCCc1c[nH]c2ccc(O)cc12 [SEROTONIN HYDROCHLORIDE] | 0.58 | 0.43 |  |  | 0.19 |  |  | 0.29 | 0.46 | 0.97 | 0.67 |  |  |  | 1 |  |  |  | 0.12 |  | Growth Rate [3, 13]: 0.79; Growth Rate [3, 7]: 0.38; Growth Rate [3, 12]: 0.62 |
